{
  "source": "PubChem BioAssay AID328",
  "about": "(DTP/NCI, 2004)",
  "tested_on": "BDF1 mice, P388 leukemia ip, median survival T/C",
  "test": "NCI In Vivo Anticancer Drug Screen. Data for tumor model P388 Leukemia (intraperitoneal) in B6D2F1 (BDF1) mice",
  "conditions": "endpoint: median survival time, higher = longer survival",
  "method_in_brief": "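Mice carrying the transplantable tumour receive compound or vehicle. Survival is followed in each arm, and the treated measure is divided by the vehicle measure.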",
  "key": {"[1]": {"conditions": "dose: 50.0 mg/kg/injection, schedule: Q01DX009 (ip), vehicle: saline with Tween-80"}, "[2]": {"conditions": "dose: 100.0 mg/kg/injection, schedule: Q01DX009 (ip), vehicle: saline with Tween-80"}, "[3]": {"conditions": "dose: 200.0 mg/kg/injection, schedule: Q01DX009 (ip), vehicle: saline with Tween-80"}},
  "note": "“And” between values parts separate entries of the source, which are not always exact repeats. Identical values can stand only once. Inconclusive results and toxic doses are left out.",
  "data": [
    {"compound": "O=CNC(Cc1cccc(N(CCCl)CCCl)c1)C(=O)O", "note": "(stereo not drawn)", "values": [
      {"measurement": "T/C", "setting": "dose: 11.0 mg/kg/injection, schedule: Q04DX003 (ip), vehicle: saline sonified", "result": "94 % of control"},
      {"measurement": "T/C", "setting": "dose: 16.5 mg/kg/injection, schedule: Q04DX003 (ip), vehicle: saline sonified", "result": "100 % of control"},
      {"measurement": "T/C", "setting": "dose: 25.0 mg/kg/injection, schedule: Q04DX003 (ip), vehicle: saline sonified", "result": "122 % of control"},
      {"measurement": "T/C", "setting": "dose: 50.0 mg/kg/injection, schedule: Q04DX003 (ip), vehicle: saline with Tween-80", "result": "177 % of control"},
      {"measurement": "T/C", "setting": "dose: 100.0 mg/kg/injection, schedule: Q04DX003 (ip), vehicle: saline with Tween-80", "result": "272 % of control"}
    ]},
    {"compound": "CCC1COC(=O)N1", "note": "(stereo not drawn)", "values": [
      {"measurement": "T/C", "setting": "dose: 25.0 mg/kg/injection, schedule: Q04DX003 (ip), vehicle: saline", "result": "109 % of control"},
      {"measurement": "T/C", "setting": "dose: 50.0 mg/kg/injection, schedule: Q04DX003 (ip), vehicle: saline", "result": "104 % of control"},
      {"measurement": "T/C", "setting": "dose: 100.0 mg/kg/injection, schedule: Q04DX003 (ip), vehicle: saline", "result": "95 % of control"}
    ]},
    {"compound": "COc1c(O)ccc2c1c[n+](C)c1c3cc4c(cc3ccc21)OCO4", "values": [
      {"measurement": "T/C", "setting": "dose: 4.0 mg/kg/injection, schedule: Q01DX009 (ip), vehicle: saline", "result": "113 % of control"},
      {"measurement": "T/C", "setting": "dose: 8.0 mg/kg/injection, schedule: Q01DX009 (ip), vehicle: saline", "result": "113 % of control"},
      {"measurement": "T/C", "setting": "dose: 16.0 mg/kg/injection, schedule: Q01DX009 (ip), vehicle: saline", "result": "106 % of control"}
    ]},
    {"compound": "N#Cc1c(O)oc2cccnc12", "values": [
      {"measurement": "T/C", "setting": "dose: 50.0 mg/kg/injection, schedule: Q01DX005 (ip), vehicle: saline with Tween-80", "result": "92 % of control"},
      {"measurement": "T/C", "setting": "dose: 100.0 mg/kg/injection, schedule: Q01DX005 (ip), vehicle: saline with Tween-80", "result": "97 % of control"},
      {"measurement": "T/C", "setting": "dose: 200.0 mg/kg/injection, schedule: Q01DX005 (ip), vehicle: saline with Tween-80", "result": "103 % of control"}
    ]},
    {"compound": "S=c1[nH]c2nccnc2[nH]1", "values": [
      {"measurement": "T/C", "setting": "dose: 25.0 mg/kg/injection, schedule: Q01DX009 (ip), vehicle: saline with Tween-80", "result": "95 % of control"},
      {"measurement": "T/C", "setting": "[1]", "result": "100 % of control"},
      {"measurement": "T/C", "setting": "[2]", "result": "95 % of control"},
      {"measurement": "T/C", "setting": "[3]", "result": "95 % of control"},
      {"measurement": "T/C", "setting": "dose: 400.0 mg/kg/injection, schedule: Q01DX009 (ip), vehicle: saline with Tween-80", "result": "104 % of control"}
    ]},
    {"compound": "CCn1cnc2c(=S)nc[nH]c21", "values": [
      {"measurement": "T/C", "setting": "dose: 15.6 mg/kg/injection, schedule: Q01DX010 (ip), vehicle: saline", "result": "100 % of control and 115 % of control"},
      {"measurement": "T/C", "setting": "dose: 31.3 mg/kg/injection, schedule: Q01DX010 (ip), vehicle: saline", "result": "90 % of control and 105 % of control"},
      {"measurement": "T/C", "setting": "dose: 62.5 mg/kg/injection, schedule: Q01DX010 (ip), vehicle: saline", "result": "104 % of control and 115 % of control"}
    ]},
    {"compound": "COC(=O)[C@@]12OC[C@]34[C@H]([C@@H](O)[C@@H]1O)[C@@]1(C)[C@H](O)C(=O)C=C(C)[C@@H]1C[C@H]3OC(=O)C(OC(C)=O)[C@@H]24", "note": "(stereo partly drawn)", "values": [
      {"measurement": "T/C", "setting": "dose: 15.0 micrograms/kg/injection, schedule: Q01DX009 (ip), vehicle: saline + alcohol", "result": "100 % of control"},
      {"measurement": "T/C", "setting": "dose: 16.0 micrograms/kg/injection, schedule: Q01DX009 (ip), vehicle: saline + alcohol", "result": "100 % of control"},
      {"measurement": "T/C", "setting": "dose: 31.0 micrograms/kg/injection, schedule: Q01DX009 (ip), vehicle: saline + alcohol", "result": "90 % of control and 100 % of control"},
      {"measurement": "T/C", "setting": "dose: 62.0 micrograms/kg/injection, schedule: Q01DX009 (ip), vehicle: saline + alcohol", "result": "90 % of control and 104 % of control"},
      {"measurement": "T/C", "setting": "dose: 125.0 micrograms/kg/injection, schedule: Q01DX009 (ip), vehicle: saline + alcohol", "result": "115 % of control"},
      {"measurement": "T/C", "setting": "dose: 250.0 micrograms/kg/injection, schedule: Q01DX009 (ip), vehicle: saline + alcohol", "result": "110 % of control"},
      {"measurement": "T/C", "setting": "dose: 500.0 micrograms/kg/injection, schedule: Q01DX009 (ip), vehicle: saline + alcohol", "result": "120 % of control"}
    ]},
    {"compound": "C1CCN[N-]C1.C1CCN[N-]C1.[Cl][Pt+2]([Cl])([Cl])[Cl]", "values": [
      {"measurement": "T/C", "setting": "dose: 0.78 mg/kg/injection, schedule: Q01DX009 (ip), vehicle: water", "result": "103 % of control"},
      {"measurement": "T/C", "setting": "dose: 1.56 mg/kg/injection, schedule: Q01DX009 (ip), vehicle: water", "result": "112 % of control"},
      {"measurement": "T/C", "setting": "dose: 3.12 mg/kg/injection, schedule: Q01DX009 (ip), vehicle: water", "result": "120 % of control"},
      {"measurement": "T/C", "setting": "dose: 6.25 mg/kg/injection, schedule: Q01DX009 (ip), vehicle: water", "result": "106 % of control and 111 % of control"},
      {"measurement": "T/C", "setting": "dose: 25.0 mg/kg/injection, schedule: Q04DX003 (ip), vehicle: water", "result": "104 % of control"},
      {"measurement": "T/C", "setting": "dose: 50.0 mg/kg/injection, schedule: Q04DX003 (ip), vehicle: water", "result": "95 % of control"}
    ]},
    {"compound": "CC1(C)OC(CI)C(COS(C)(=O)=O)O1", "note": "(stereo not drawn)", "values": [
      {"measurement": "T/C", "setting": "[1]", "result": "100 % of control"},
      {"measurement": "T/C", "setting": "[2]", "result": "91 % of control"},
      {"measurement": "T/C", "setting": "[3]", "result": "112 % of control"}
    ]}
  ]
}
